Experimental data: US20150031668A1, “CHROMAN DERIVATIVES AS TRPM8 INHIBITORS” (AMGEN INC., priority 2013, published 2015)

What follows are compounds tested against T1, human TRPM8 (Homo sapiens, UniProt Q7Z2W7) (assay: Luminescence readout assay for measuring intracellular calcium (aequorin, CHO cells expressing human TRPM8; icilin, L-menthol or cold activation)). Settings: CHO cells expressing human TRPM8, icilin activation (1 μM), aequorin luminescence; read-out: hTRPM8 IC50.
T1 construct: expressed in transfected cells; host or cells: Chinese hamster ovary (CHO) cells, T-REx tetracycline-inducible expression system (Invitrogen); co-transfected with pcDNA3.1 aequorin
T1 sequence (Q7Z2W7 whole entry): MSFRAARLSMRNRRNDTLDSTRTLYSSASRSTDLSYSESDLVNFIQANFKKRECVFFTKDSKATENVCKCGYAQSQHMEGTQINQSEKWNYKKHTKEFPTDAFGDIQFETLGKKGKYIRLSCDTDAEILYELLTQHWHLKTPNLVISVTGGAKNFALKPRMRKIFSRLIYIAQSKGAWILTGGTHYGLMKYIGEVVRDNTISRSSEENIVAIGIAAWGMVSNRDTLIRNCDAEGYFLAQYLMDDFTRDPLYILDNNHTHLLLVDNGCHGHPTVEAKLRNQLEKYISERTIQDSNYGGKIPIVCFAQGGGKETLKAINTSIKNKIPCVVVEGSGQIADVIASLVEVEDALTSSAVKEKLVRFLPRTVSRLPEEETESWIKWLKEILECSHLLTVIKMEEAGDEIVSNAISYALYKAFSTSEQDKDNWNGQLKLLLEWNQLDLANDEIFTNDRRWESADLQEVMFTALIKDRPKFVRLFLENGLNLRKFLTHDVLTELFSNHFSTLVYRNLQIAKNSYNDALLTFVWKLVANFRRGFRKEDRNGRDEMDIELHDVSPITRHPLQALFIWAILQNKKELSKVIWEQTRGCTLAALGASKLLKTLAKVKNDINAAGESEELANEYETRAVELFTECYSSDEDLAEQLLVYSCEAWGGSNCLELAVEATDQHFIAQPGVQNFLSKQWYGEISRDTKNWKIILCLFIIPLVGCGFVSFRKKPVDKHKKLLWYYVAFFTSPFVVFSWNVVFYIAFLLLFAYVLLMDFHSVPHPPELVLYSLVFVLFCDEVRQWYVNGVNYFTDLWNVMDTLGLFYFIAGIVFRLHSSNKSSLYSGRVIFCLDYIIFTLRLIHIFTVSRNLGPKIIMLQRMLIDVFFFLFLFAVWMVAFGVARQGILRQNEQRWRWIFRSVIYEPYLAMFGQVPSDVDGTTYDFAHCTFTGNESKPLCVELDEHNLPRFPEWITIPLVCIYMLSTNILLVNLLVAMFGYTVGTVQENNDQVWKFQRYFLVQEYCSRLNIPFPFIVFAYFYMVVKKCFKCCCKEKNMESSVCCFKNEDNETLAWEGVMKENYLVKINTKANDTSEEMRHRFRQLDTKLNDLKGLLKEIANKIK
Type: cell-based
Method: Luminescence Readout Assay for Measuring Intracellular Calcium
A stable Chinese hamster ovary cell line expressing human TRPM8 was generated using tetracycline inducible T-REx™ expression system from Invitrogen, Inc. (Carlsbad, Calif.). […] Twenty four hours before the assay, cells were seeded in 96-well plates and TRPM8 expression was induced with 0.5 μg/ml tetracycline. On the day of the assay, culture media was removed and cells were incubated with assay buffer
Potential antagonists were added 2.5 min prior to the addition of agonist, 1 μM icilin, 100 μM L-menthol, or 1 min prior to the addition of cold buffer (<10° C.). The luminescence was measured by a CCD camera based FLASH-luminometer built by Amgen, Inc. A cooling device attached to FLASH luminometer was used for cold activation.

With `CC(O)c1ccc(C(=O)N[C@]2(c3ccc(OC(F)(F)F)c(F)c3)CCOc3cccnc32)cc1` (mixture of isomers) [Example 157, N—((S)-4-(3-fluoro-4-(trifluoromethoxy)phenyl)-3,4-dihydro-2H-pyrano[3,2-b]pyridin-4-yl)-4-((R)-1-hydroxyethyl)benzamide and N—((S)-4-(3-fluoro-4-(trifluoromethoxy)phenyl)-3,4-dihydro-2H-pyrano[3,2-b]pyridin-4-yl)-4-((S)-1-hydroxyethyl)benzamide (1:1)] as the compound, how does the IC50 read?
Its IC50 is 0.012 µM.

Which IC50 does the source give for `O=C(N[C@]1(c2ccc(OC(F)(F)F)c(F)c2)CCOc2cccnc21)c1ccc(C(O)C(F)(F)F)cc1` (mixture of isomers) [Example 159, N—((S)-4-(3-fluoro-4-(trifluoromethoxy)phenyl)-3,4-dihydro-2H-pyrano[3,2-b]pyridin-4-yl)-4-((R)-2,2,2-trifluoro-1-hydroxyethyl)benzamide and N—((S)-4-(3-fluoro-4-(trifluoromethoxy)phenyl)-3,4-dihydro-2H-pyrano[3,2-b]pyridin-4-yl)-4-((S)-2,2,2-trifluoro-1-hydroxyethyl)benzamide (1:1)] here?
The IC50 was 0.046 µM.

Which IC50 does the source give for `O=C(N[C@]1(c2ccc(C(F)(F)F)cc2)CCOc2cccnc21)c1ccccc1` (single isomer, unassigned) [Example 1] here?
Its IC50 is 0.014 µM.

Which IC50 does the source give for `O=C(N[C@]1(c2ccc(C(F)(F)F)cc2)CCOc2cccnc21)c1ccc(F)cc1` (single isomer, unassigned) [Example 2] here?
The IC50 was 0.086 µM.

Which IC50 does the source give for `O=C(N[C@]1(c2ccc(Cl)c(Cl)c2)CCOc2cccnc21)c1ccccc1` (single isomer, unassigned) [Example 3] here?
Its IC50 is 0.025 µM.

With `O=C(N[C@]1(c2ccc(C(F)(F)F)cc2)CCOc2cccnc21)c1ccc(O)cc1` (single isomer, unassigned) [Example 4] as the compound, how does the IC50 read?
The IC50 was 0.009 µM.

With `COc1ccc(C(=O)N[C@]2(c3ccc(C(F)(F)F)cc3)CCOc3cccnc32)cc1` (single isomer, unassigned) [Example 5] as the compound, how does the IC50 read?
Its IC50 is 0.021 µM.

`O=C(N[C@]1(c2ccc(Cl)cc2)CCOc2cccnc21)c1ccccc1` (single isomer, unassigned) [Example 14] was tested. Which IC50 did it give?
Its IC50 is 0.091 µM.

Which IC50 does the source give for `O=C(N[C@]1(c2ccc(Cl)c(F)c2)CCOc2cccnc21)c1ccccc1` (single isomer, unassigned) [Example 15] here?
Its IC50 is 0.054 µM.

`O=C(N[C@]1(c2ccc(F)cc2)CCOc2cccnc21)c1ccccc1` (single isomer, unassigned) [Example 16] was tested. Which IC50 did it give?
Its IC50 is 0.357 µM.

How did the IC50 turn out when `O=C(N[C@]1(c2cccc(OC(F)(F)F)c2)CCOc2cccnc21)c1ccccc1` (single isomer, unassigned) [Example 17] was run?
Its IC50 is 0.06 µM.

For `Cc1ccc([C@@]2(NC(=O)c3ccccc3)CCOc3cccnc32)cc1` (single isomer, unassigned) [Example 18], which IC50 is on record?
The IC50 was 0.162 µM.

How did the IC50 turn out when `O=C(N[C@]1(c2ccc(C(F)(F)F)c(F)c2)CCOc2cccnc21)c1ccccc1` (single isomer, unassigned) [Example 19] was run?
The IC50 was 0.012 µM.

How did the IC50 turn out when `O=C(N[C@]1(c2ccc(C(F)(F)F)cc2)CCOc2cccnc21)c1ccc2[nH]c(=O)oc2c1` (single isomer, unassigned) [Example 20] was run?
Its IC50 is 0.01 µM.

How did the IC50 turn out when `O=C(N[C@]1(c2ccc(C(F)(F)F)cc2)CCOc2ccccc21)c1ccccc1` (single isomer, unassigned) [Example 28] was run?
The IC50 was 1.66 µM.

`O=C(NC1(c2ccc(OC(F)(F)F)c(F)c2)CCOc2cccnc21)c1ccc(F)cc1` (stereo not drawn) [Example 6, 4-fluoro-N-(4-(3-fluoro-4-(trifluoromethoxy)phenyl)-3,4-dihydro-2H-pyrano[3,2-b]pyridin-4-yl)benzamide] was tested. Which IC50 did it give?
The IC50 was 0.034 µM.

Which IC50 does the source give for `O=C(NC1(c2ccc(OC(F)(F)F)c(F)c2)CCOc2cccnc21)c1ccccc1` (stereo not drawn) [Example 7, N-(4-(3-fluoro-4-(trifluoromethoxy)phenyl)-3,4-dihydro-2H-pyrano[3,2-b]pyridin-4-yl)benzamide] here?
The IC50 was 0.032 µM.

With `O=C(NC1(c2ccc(OC(F)(F)F)cc2)CCOc2cccnc21)c1ccc(F)cc1` (stereo not drawn) [Example 8, 4-fluoro-N-(4-(4-(trifluoromethoxy)phenyl)-3,4-dihydro-2H-pyrano[3,2-b]pyridin-4-yl)benzamide] as the compound, how does the IC50 read?
The IC50 was 0.075 µM.
